Values of other authors, collected in patent US20190105278A1, “SHELLAC MICROCAPSULE FORMULATIONS AND COMPOSITIONS” (CONARIS RESEARCH INSTITUTE AG, priority 2016, published 2019).

Conditions: EFSA; for acceptable daily intake (ADI): preparations with at least 90% purity

Row | upper systemic intake limit | acceptable daily intake (ADI) | SMILES
1 | 5 mg/kg | 5 mg/kg body weight | CC(=O)Nc1ccc(S(=O)(=O)[O-])c2cc(S(=O)(=O)[O-])c(N=Nc3ccc(N=Nc4ccc(S(=O)(=O)[O-])cc4)c4ccc(S(=O)(=O)[O-])cc34)c(O)c12.[Na+].[Na+].[Na+].[Na+] [brilliant black BN]
2 | – | 5 mg/kg body weight | O=C1/C(=C2\Nc3ccc(S(=O)(=O)[O-])cc3C2=O)Nc2ccc(S(=O)(=O)[O-])cc21.[Na+].[Na+] [indigo carmine]
3 | 5 mg/kg | 5 mg/kg body weight | CCN(CC)c1ccc(C(=C2C=CC(=[N+](CC)CC)C=C2)c2cc(O)c(S(=O)(=O)[O-])cc2S(=O)(=O)[O-])cc1.CCN(CC)c1ccc(C(=C2C=CC(=[N+](CC)CC)C=C2)c2cc(O)c(S(=O)(=O)[O-])cc2S(=O)(=O)[O-])cc1.[Ca+2] [patent blue V]
